Data taken from ChEMBL document CHEMBL1201862, “PubChem BioAssay data set” (2004).
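Tested at 5 concentrations; 48 h exposure; 96-well plates; endpoints linearly interpolated, else capped at highest concentration. GI50 is the concentration that inhibits growth by half.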 Active and inactive are the calls of the source. Cut-off read from the data, not from the text of the source: active = GI50 up to about 1.1 µM and inactive = higher.

Key:
Test in all cases: NCI anticancer screen, dose series, 48 h
786-0 = system: 786-0
A498 = system: A498
A549 = system: A549
ACHN = system: ACHN
BT-549 = system: BT-549
CAKI-1 = system: CAKI-1
CCRF-CEM = system: CCRF-CEM
COLO 205 = system: COLO 205
DU-145 = system: DU-145
EKVX = system: EKVX
HCT-116 = system: HCT-116
HCT-15 = system: HCT-15
HOP-62 = system: HOP-62
HOP-92 = system: HOP-92
HT-29 = system: HT-29
Hs-578T = system: Hs-578T
IGROV-1 = system: IGROV-1
K562 = system: K562
KM12 = system: KM12
LOX IMVI = system: LOX IMVI
M14 = system: M14
MCF7 = system: MCF7
MDA-MB-231 = system: MDA-MB-231
MDA-MB-435 = system: MDA-MB-435
MDA-N = system: MDA-N
MOLT-4 = system: MOLT-4
Malme-3M = system: Malme-3M
NCI-H23 = system: NCI-H23
NCI-H460 = system: NCI-H460
NCI-H522 = system: NCI-H522
NCI/ADR-RES = system: NCI/ADR-RES
OVCAR-3 = system: OVCAR-3
OVCAR-4 = system: OVCAR-4
OVCAR-5 = system: OVCAR-5
OVCAR-8 = system: OVCAR-8
PC-3 = system: PC-3
RPMI-8226 = system: RPMI-8226
RXF 393 = system: RXF 393
SF-268 = system: SF-268
SF-295 = system: SF-295
SF-539 = system: SF-539
SK-MEL-28 = system: SK-MEL-28
SK-MEL-2 = system: SK-MEL-2
SK-MEL-5 = system: SK-MEL-5
SK-OV-3 = system: SK-OV-3
SN12C = system: SN12C
SNB-19 = system: SNB-19
SNB-75 = system: SNB-75
SR = system: SR
SW-620 = system: SW-620
T47D = system: T47D
TK-10 = system: TK-10
U-251 = system: U-251
UACC-62 = system: UACC-62
UO-31 = system: UO-31
HCC 2998 = system: HCC 2998
NCI-H226 = system: NCI-H226
UACC-257 = system: UACC-257
HL-60 = system: HL-60

Measured: GI50

O=C(O)CSC1=NCCN1
> 100 µM: HCT-15
inactive: 786-0 > 100 µM | A498 > 100 µM | A549 > 100 µM | ACHN > 100 µM | BT-549 > 100 µM | CAKI-1 > 100 µM | CCRF-CEM > 100 µM | COLO 205 > 100 µM | DU-145 > 100 µM | EKVX > 100 µM | HCT-116 > 100 µM | HOP-62 > 100 µM | HOP-92 > 100 µM | HT-29 > 100 µM | Hs-578T > 100 µM | IGROV-1 > 100 µM | K562 > 100 µM | KM12 > 100 µM | LOX IMVI > 100 µM | M14 > 100 µM | MCF7 > 100 µM | MDA-MB-231 > 100 µM | MDA-MB-435 > 100 µM | MDA-N > 100 µM | MOLT-4 > 100 µM | Malme-3M > 100 µM | NCI-H23 > 100 µM | NCI-H460 > 100 µM | NCI-H522 > 100 µM | NCI/ADR-RES > 100 µM | OVCAR-3 > 100 µM | OVCAR-4 > 100 µM | OVCAR-5 > 100 µM | OVCAR-8 > 100 µM | PC-3 > 100 µM | RPMI-8226 > 100 µM | RXF 393 > 100 µM | SF-268 > 100 µM | SF-295 > 100 µM | SF-539 > 100 µM | SK-MEL-28 > 100 µM | SK-MEL-2 > 100 µM | SK-MEL-5 > 100 µM | SK-OV-3 > 100 µM | SN12C > 100 µM | SNB-19 > 100 µM | SNB-75 > 100 µM | SR > 100 µM | SW-620 > 100 µM | T47D > 100 µM | TK-10 > 100 µM | U-251 > 100 µM | UACC-62 > 100 µM | UO-31 > 100 µM

CN1CCCN(C)CCCN(C)CCCN(C)CCC1
inactive: 786-0 > 100 µM | A549 > 100 µM | ACHN > 100 µM | BT-549 > 100 µM | CAKI-1 > 100 µM | CCRF-CEM > 100 µM | COLO 205 > 100 µM | DU-145 > 100 µM | EKVX > 100 µM | HCC 2998 > 100 µM | HCT-116 > 100 µM | HOP-62 > 100 µM | HT-29 > 100 µM | Hs-578T > 100 µM | IGROV-1 > 100 µM | K562 > 100 µM | KM12 > 100 µM | M14 > 100 µM | MCF7 > 100 µM | MDA-MB-231 > 100 µM | MDA-MB-435 > 100 µM | MDA-N > 100 µM | MOLT-4 > 100 µM | Malme-3M > 100 µM | NCI-H226 > 100 µM | NCI-H23 > 100 µM | NCI-H522 > 100 µM | NCI/ADR-RES > 100 µM | OVCAR-3 > 100 µM | OVCAR-4 > 100 µM | OVCAR-5 > 100 µM | OVCAR-8 > 100 µM | PC-3 > 100 µM | RPMI-8226 > 100 µM | RXF 393 > 100 µM | SF-268 > 100 µM | SF-295 > 100 µM | SK-MEL-28 > 100 µM | SK-MEL-2 > 100 µM | SK-MEL-5 > 100 µM | SK-OV-3 > 100 µM | SNB-19 > 100 µM | SR > 100 µM | SW-620 > 100 µM | T47D > 100 µM | TK-10 > 100 µM | U-251 > 100 µM | UACC-257 > 100 µM | UACC-62 > 100 µM | UO-31 > 100 µM
> 100 µM: HCT-15

O=S(=O)(O)c1ccc2c(/N=N/c3ccc(Sc4ccc(/N=N/c5c(O)ccc6cc(S(=O)(=O)O)ccc56)cc4)cc3)c(O)ccc2c1
> 100 µM: HCT-15
inactive: 786-0 > 100 µM | A549 > 100 µM | ACHN > 100 µM | BT-549 > 100 µM | CAKI-1 > 100 µM | CCRF-CEM > 100 µM | COLO 205 > 100 µM | DU-145 > 100 µM | EKVX > 100 µM | HCC 2998 > 100 µM | HCT-116 > 100 µM | HL-60 > 100 µM | HOP-62 > 100 µM | HOP-92 > 100 µM | HT-29 > 100 µM | Hs-578T > 100 µM | IGROV-1 > 100 µM | K562 > 100 µM | KM12 > 100 µM | M14 > 100 µM | MCF7 > 100 µM | MDA-MB-231 > 100 µM | MDA-MB-435 > 100 µM | MDA-N > 100 µM | MOLT-4 > 100 µM | Malme-3M > 100 µM | NCI-H226 > 100 µM | NCI-H23 > 100 µM | NCI-H460 > 100 µM | NCI-H522 > 100 µM | NCI/ADR-RES > 100 µM | OVCAR-3 > 100 µM | OVCAR-4 > 100 µM | OVCAR-5 > 100 µM | OVCAR-8 > 100 µM | PC-3 > 100 µM | RPMI-8226 > 100 µM | RXF 393 > 100 µM | SF-268 > 100 µM | SF-295 > 100 µM | SF-539 > 100 µM | SK-MEL-28 > 100 µM | SK-MEL-2 > 100 µM | SK-MEL-5 > 100 µM | SK-OV-3 > 100 µM | SN12C > 100 µM | SNB-19 > 100 µM | SR > 100 µM | SW-620 > 100 µM | T47D > 100 µM | TK-10 > 100 µM | U-251 > 100 µM | UACC-257 > 100 µM | UACC-62 > 100 µM | UO-31 > 100 µM
